{"source": "patent US20260232644A1", "about": "“Compositions Comprising an Inhibitor of Galectin-3” (University of Liverpool, priority 2023, published 2026)", "key": {"full-length galectin-3": {"target": "T1, full-length galectin-3 (Homo sapiens, UniProt P17931)", "T1 construct": "made in house; host or cells: E. coli", "T1 sequence (P17931 whole entry)": "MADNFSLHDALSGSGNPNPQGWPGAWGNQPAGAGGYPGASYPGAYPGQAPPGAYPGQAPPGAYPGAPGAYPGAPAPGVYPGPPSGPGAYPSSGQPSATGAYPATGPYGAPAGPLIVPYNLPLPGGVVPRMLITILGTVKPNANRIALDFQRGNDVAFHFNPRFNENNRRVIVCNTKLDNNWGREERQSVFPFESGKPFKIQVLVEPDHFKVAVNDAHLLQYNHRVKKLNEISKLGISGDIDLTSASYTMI", "test": "Tryptophan Fluorescence Spectroscopy (TFS) binding affinity, full-length Galectin-3", "procedure": "(§1) The binding affinity of the inhibitors to galectin-3 was determined by Intrinsic Tryptophan Fluorescence Spectroscopy (TFS) exactly as we described recently [Sindrewicz, P., et al., Intrinsic tryptophan fluorescence spectroscopy reliably determines galectin-ligand interactions. Sci Rep, 2019. 9(1): p. 11851]. The Galectin-3 concentration used was 10 μM and the inhibitor titration concentrations were from 0 to 224 μM. DMSO/control buffer (PBS with 2 mM EDTA) titrations were performed and used for background subtraction."}, "[1]": {"target": "T2, C-terminal (aa 115-250) Galectin-3 (Homo sapiens, UniProt P17931)", "T2 construct": "made in house; host or cells: E. coli", "T2 sequence (P17931 115-250)": "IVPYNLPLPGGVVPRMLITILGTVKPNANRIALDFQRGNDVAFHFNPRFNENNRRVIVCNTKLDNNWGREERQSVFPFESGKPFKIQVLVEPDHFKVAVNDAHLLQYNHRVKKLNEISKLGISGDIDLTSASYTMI", "test": "Tryptophan Fluorescence Spectroscopy (TFS) binding affinity, C-terminal Galectin-3", "procedure": "as §1"}, "[2]": {"system": "human colon cancer SW620 cells", "test": "Galectin-3-mediated SW620 cell adhesion to HUVECs", "format": "cell-based", "conditions": "Galectin-3 2 μg/ml, various concentrations", "procedure": "HUVEC cells at 1×10^5 cells/ml in EGM medium were seeded into 24 well plates pre-inserted with 13 mm glass coverslip. The cells were incubated at 37° C. at 5% CO2 for 24 hr for monolayer formation. AGA19+ or SW620 cell suspension (5×10^5 cells/ml in DMEM) was introduced with 5 μl/ml fluorescent cell labelling solution DiL for 30 min at 37° C. The fluorescent labelled cells were washed twice with PBS and resuspended into 1×10^5 cells/ml in DMEM. The cancer cell suspension was then introduced with galectin-3 (2 μg/ml) and various concentrations of the compound inhibitors at 37° C. for 1 hr. The wells were carefully washed twice with PBS to remove the non-adhesion cells before the cells in the wells were fixed with 2% paraformaldehyde for 10 min. The glass coverslip was carefully removed from the plate, placed on a glass slide. After addition of fluorescence mounting medium containing DAPI, fluorescence labelled cells were quantified under a fluorescence microscope."}, "[3]": {"system": "human melanoma ACA19 cells", "test": "ACA19 cell invasion through HUVECs (transwell)", "format": "cell-based", "conditions": "compound 20 μM, transwells", "procedure": "HUVECs were plated at a density of 1.5×10^4 cells in 8 μm pore transwells in 24-well plate and cultured for three days to allow formation of tight monolayer. The integrity of HUVEC monolayer was confirmed by measuring TEER and only monolayers with TEER reading>800 Ω/cm^2 were used for the invasion assay. AGA19+ or SW620 cell suspension (5×10^5 cells/ml in DMEM) was introduced with 5 μl/ml fluorescent cell labelling solution DiL for 30 min at 37° C. The fluorescence labelled cells were washed twice with PBS and resuspended into 1×10^5 cells/ml in DMEM. The cancer cell suspension was then incubated with or without galectin-3 (2 μg/ml) or various concentrations of the compound inhibitors or lactose at 37° C. for 20 min before introduction to the HUVEC monolayers for 24 hr at 37° C. The cells at the upper side of the trans-well inserts were gently removed with cotton swabs. The cells migrated to the bottom side of the transwells were fixed with 2% paraformaldehyde for 10 min. The trans-well membrane was removed and placed on glass slides. After addition of fluorescence mounting medium containing DAPI, the fluorescence labelled cells on the membrane were quantified under a fluorescence microscope."}, "[4]": {"system": "human colon cancer SW620 cells", "test": "LDH release cytotoxicity assay, SW620", "format": "cell-based", "quoted_text": "(§3) SW620 cells (5×10^4 cells/ml) were seeded into 96-well plate in DMEM (and incubated at 37° C. 5% CO2 for 24 hr. HUVECs (1.0×10^5 cells/ml) was seeded in EBM medium and incubated for 24-36 hr until they formed a monolayer. Compound inhibitors at different concentrations were then introduced to the cells (10× lysis buffer was included as maximum LDH activity control) for 24 hr. The culture medium was transferred to a new plate and was mixed with equal volume of reaction mixture provided in the kit for 30 min at room temperature before the absorbance was measured at 490 nm (reference 680 nm) by a spectrophotometer."}, "vascular HUVECs": {"system": "vascular HUVECs", "test": "LDH release cytotoxicity assay, HUVECs", "format": "cell-based, human", "quoted_text": "as §3"}, "Galectin-2": {"target": "T3, Galectin-2 (Homo sapiens, UniProt P05162)", "T3 construct": "made in house; host or cells: E. coli", "T3 sequence (P05162 1-132)": "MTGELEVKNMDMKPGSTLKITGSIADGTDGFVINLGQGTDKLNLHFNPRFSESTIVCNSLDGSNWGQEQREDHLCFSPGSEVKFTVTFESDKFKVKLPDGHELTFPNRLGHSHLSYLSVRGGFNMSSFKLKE", "test": "Galectin-2 binding to asialofetuin ELISA", "conditions": "Gal-2 5 μg/ml, ASF 20 μg/ml", "procedure": "(§2) Effect of the inhibitors on galectin binding to its ligand asialo fetuin (ASF) was measured by galectin ELISA. Nanty-six well plates were coated overnight with 20 μg/ml ASF in coating buffer (15 mM Na2CO3 17 mM NaHCO3 pH 9.6.). The wells were washed twice with PBS and incubated with blocking buffer (1% BSA in PBS) for 1 hr. The supernatants were removed and replaced with 5 μg/ml recombinant human galectin without or with different concentrations of the compound inhibitors or lactose in blocking buffer for 1 hr at room temperature. The wells were washed and incubated with 1 μg/ml anti-galectin antibody for 2 hr. Following addition of HRP-conjugated secondary antibody for 1 hr, FAST OPD development solution was added for 15-20 minutes. The reaction was terminated by addition of 4M sulphuric acid. The plates were read at 492 nm (reference wavelength 595 nm) by a microplate reader."}, "Galectin-8": {"target": "T4, Galectin-8 (Homo sapiens, UniProt O00214)", "T4 construct": "purchased R&D Systems (Abingdon, UK)", "T4 sequence (O00214 1-317)": "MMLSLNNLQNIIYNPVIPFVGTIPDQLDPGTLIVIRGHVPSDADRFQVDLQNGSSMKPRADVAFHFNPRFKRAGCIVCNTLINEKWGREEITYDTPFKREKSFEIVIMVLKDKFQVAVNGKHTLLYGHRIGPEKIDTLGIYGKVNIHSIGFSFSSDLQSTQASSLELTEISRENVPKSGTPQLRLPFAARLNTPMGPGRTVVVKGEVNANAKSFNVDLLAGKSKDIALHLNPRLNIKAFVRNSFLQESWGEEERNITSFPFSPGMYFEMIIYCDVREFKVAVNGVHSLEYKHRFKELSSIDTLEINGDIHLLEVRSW", "test": "Galectin-8 binding to asialofetuin ELISA", "conditions": "Gal-8 5 μg/ml, ASF 20 μg/ml", "procedure": "as §2"}, "[5]": {"system": "human lung cancer H1975 cells", "test": "Lung cancer cell adhesion to basement matrix", "format": "cell-based", "procedure": "Nanty-six well plates were coated with 50 μl Matrigel (1:30 diluted in PBS) at 37° C. for 1 hour.\nCancer cells, pre-labelled with fluorescent die DiI at 37° C. for 20 minutes, were washed twice with PBS and resuspended into 3×10^4 cells/ml in serum-free medium. The matrix-coated 96-well plates were washed twice with PBS before introduction of 100μ cell suspension with different concentrations of the inhibitors or PBS/DMSO (control) for 1 hour at 37° C. The plates were washed twice with PBS before three randomly selected Field of Views (FOVs) were recorded by fluorescence microscope and number of adhesion cells were quantified by Image J."}}, "note": "Structures can show the parent of a compound that is named as a salt."}
{"molecule": "NC1CCN(c2nc3c(cc2F)c(=O)c(C(=O)O)cn3-c2ccc(F)cc2F)C1", "note": "(stereo not drawn) [Formula X, Tosufloxacin tosylate]", "values": [{"measurement": "Kd", "setting": "full-length galectin-3", "value": "5 to 7", "unit": "µM"}, {"measurement": "Kd", "setting": "[1]", "value": "5 to 7", "unit": "µM"}, {"measurement": "Inhibition of SW620 cell adhesion to HUVECs", "setting": "[2]", "value": "dose-dependent inhibition"}, {"measurement": "Inhibition of Galectin-3-mediated invasion of ACA19 cells through HUVECs", "setting": "[3]", "value": "significant inhibition"}, {"measurement": "Cytotoxicity to SW620 cells (LDH release)", "setting": "[4]; at 100 μM", "value": "no detectable cytotoxicity"}, {"measurement": "Cytotoxicity to SW620 cells (LDH release)", "setting": "[4]; various concentrations", "value": "low cytotoxicity"}, {"measurement": "Cytotoxicity to HUVEC cells (LDH release)", "setting": "vascular HUVECs; at 100 μM", "value": "no detectable cytotoxicity"}, {"measurement": "Cytotoxicity to HUVEC cells (LDH release)", "setting": "vascular HUVECs; various concentrations", "value": "low cytotoxicity"}, {"measurement": "Effect on Galectin-2 binding to asialofetuin", "setting": "Galectin-2", "value": "does not affect binding"}, {"measurement": "Effect on Galectin-8 binding to asialofetuin", "setting": "Galectin-8", "value": "does not affect binding"}, {"measurement": "IC50", "setting": "[5]; Homo sapiens, NCI-H1975", "value": "~5", "unit": "µM"}, {"measurement": "Inhibition of H1975 cell adhesion to matrix", "setting": "[5]; different concentrations", "value": "dose-dependent inhibition"}]}
